What all share (format): cell-based
The test system of data set [1] is Human CXCR7. The experiment in a line: CXCR7 β-arrestin complementation assay (PathHunter), CHO cells. The following applies: 10 nM human SDF-1, 90 minutes; read-out: IC50, CXCR7 activation (β-galactosidase). Here is the method: Besides CXCR4, SDF-1 also binds to the chemokine receptor CXCR7. The inhibitory potential of SDF-1-binding Spiegelmer NOX-A12 towards CXCR7 was tested in a complementation assay with CHO cells stably expressing CXCR7 and β-arrestin both fused to a fragment of β-galactosidase (PathHunter™—β-arrestin assay, DiscoveRX, CA, USA). Upon SDF-1 binding β-arrestin complexed with CXCR7 and thus led to complementation and activation of the β-galactosidase which was measured with a chemiluminescence substrate.
PathHunter eXpress CHO-K1 Human CXCR7 β-arrestin cells were plated for 48 hours in OCC2 Medium and stimulated with 10 nM SDF-1 and various concentrations of SDF-1-binding Spiegelmer NOX-A12 for 90 minutes. Following stimulation, signal was detected using the PathHUnter Detection Kit and the manufacturer's recommended protocol (DiscoveRX, CA, USA).

The subject of data set [2] is SDF-1 induced sprouting, rings from rat aorta. The experiment in a line: Aortic ring sprouting assay. The following applies: 10 nM SDF-1 + 1 μM Spiegelmer, 6 days; listed as 193-G2-012-5′-PEG. Here is the method:
After 6 to 7 days, sprouting (i.e. outgrowth of endothelial cells) was analysed by taking pictures and determining a sprouting index.
Aortae from male rats were obtained from Bagheri Life sciences (Berlin, Germany). The aortae were prepared freshly and transported on ice in MCDB 131-Medium (Invitrogen, Karlsruhe, Germany) containing 50 units/ml penicillin, 50 μg/ml streptomycin (both Invitrogen, Karlsruhe, Germany) and 2.5 μg/ml fungizone (Cambrex, USA).
For an experiment a single aorta was transferred to a cell culture dish together with the medium and residual connective tissue was removed. Then the aorta was cut with a scalpel into rings of about 1 to 2 mm length. The rings were washed intensively (at least five times) in Medium199 (Invitrogen, Karlsruhe, Germany) and then placed in wells of a 24 well plate, containing 450 μl of collagen solution per well. […]
Sprouting was documented by taking pictures with a digital camera. […] Pictures were analysed with the Scion Image image processing software. […] A plot histogram along this line was generated by the software, histograms were printed and peaks (representing sprouts crossing the line) were counted. […] 4 to 5 rings per condition were evaluated. […]

Data set [3] has as its system RPMI-8226 MM cells. The experiment in a line: Chemosensitization coculture of RPMI-8226 MM cells with stromal MS-5 cells. The following applies: 100 nM NOX-A12, 1 μM F-ara-A, 40 hours. How it is done: In order to mimic the in vivo interaction of the BM microenvironment with leukemia cells, an in vitro coculture system with murine BM stromal MS-5 cells and the multiple myeloma (abbr. MM) cell line RPMI 8226 was established. Aim of the experiment was to show whether SDF-1 binding […] NOX-A12 sensitizes MM cells in coculture with stromal cells to effects of chemotherapeutic agents. Stromal MS-5 cells secreting SDF 1 were incubated with SDF-1 binding […] NOX-A12 or the non-functional revNOX-A12. The MM cell line RPMI-8226 was added to the confluent stromal cell layer. The cells were then incubated with the chemotherapeutic agent F ara A (Fludarabine) for 40 hours. Cell Viability viability was measured. The murine stromal cell line MS-5 (ACC 441) was purchased from the DSMZ, the Multiple Myeloma cell line RPMI8226 (CCL-155) was purchased from the ATCC. The Multiple Myeloma cell line RPMI8226 was maintained in RPMI medium 1640 GlutaMAX (Invitrogen) supplemented with 10% FBS (Biochrom) and penicillin-streptomycin, the MS-5 cells were cultured in MEM alpha GlutaMAX (Invitrogen) with 10% FBS and penicillin-streptomycin. […] Cell viability and cell number were determined by Flow Cytometry using the Guava EasyCyte 6HT/2L (Millipore).

The record followed here is patent US9387221B2, “SDF-1 binding nucleic acids and the use thereof in cancer treatment” (NOXXON Pharma AG, priority 2010, dated 2016).

Entries after “also recorded” stand apart in the source; their conditions may differ. {PEG40k} = 40 kDa polyethylene glycol

One may read the IC50 as the concentration at which inhibition is half-maximal. Take “5′-40 kDa-PEG-GCGUGGUGUGAUCUAGAUGUAUUGGCUGAUCCUAGUCAGGUACGC (5' {PEG40k}, sugars by position and backbone not given here) [NOX-A12]”: in data set [1], the half-inhibitory concentration (IC50) is 5.4 nM. For the same substance, in data set [2], the “blockage of SDF-1 induced sprouting (sprouting index)” value is “significantly different from that for SDF-1; also recorded: could be blocked”. In addition, the “cell viability of RPMI-8226 cells cocultured with stromal MS-5 cells” value in data set [3] was “only slightly affected”.
